Source: article PMC9967275, “Screening the Pathogen Box to Discover and Characterize New Cruzain and TbrCatL Inhibitors” (Pathogens, 2023)
Like-named read-outs stand apart in the source and are kept apart here.

Legend:
TbrCatL = target: T1, TbrCatL (Trypanosoma brucei rhodesiense, UniProt Q95PM0); assay: TbrCatL enzymatic inhibition assay (cleavage of fluorogenic substrate Z-FR-AMC); assay type: biochemical; settings: for TbrCatL 0’ Inhibition / TbrCatL 10’ Inhibition: sheet "Screening results";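 as to TbrCatL 0’ Inhibition: at 5 µM compound concentration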;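 as to TbrCatL 10’ Inhibition: at 5 µM compound concentration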;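 as to TbrCatL Inhibition 0’: at 5 µM compound concentration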;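 as to TbrCatL Inhibition 10’: at 5 µM compound concentration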
T1 construct: Conor Caffrey (University of California San Diego)
T1 sequence (Q95PM0 entry or part of it): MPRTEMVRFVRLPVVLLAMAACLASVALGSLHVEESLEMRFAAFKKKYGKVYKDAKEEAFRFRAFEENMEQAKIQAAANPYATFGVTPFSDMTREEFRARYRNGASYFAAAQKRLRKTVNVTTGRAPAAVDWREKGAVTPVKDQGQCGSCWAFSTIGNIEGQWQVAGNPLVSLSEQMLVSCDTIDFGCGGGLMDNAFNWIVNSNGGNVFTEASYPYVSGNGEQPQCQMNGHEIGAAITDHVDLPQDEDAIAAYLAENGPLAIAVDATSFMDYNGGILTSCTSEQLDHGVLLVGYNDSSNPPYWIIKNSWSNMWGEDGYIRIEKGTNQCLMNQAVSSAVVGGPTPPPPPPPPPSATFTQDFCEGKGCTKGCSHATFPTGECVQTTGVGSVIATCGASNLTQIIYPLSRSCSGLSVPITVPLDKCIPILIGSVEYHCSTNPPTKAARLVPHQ
How it was run: (§1)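 Recombinant enzymes assayed by Z-Phe-Arg-AMC cleavage at 25 °C, fluorescence 340/440 nm over 5–7 min, with 10 min or no enzyme–compound preincubation.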

cruzain = cruzain (Trypanosoma cruzi, UniProt P25779); assay: biochemical; settings: for Cruzain 0’ Inhibition / Cruzain 10’ Inhibition: sheet "Screening results";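 as to Cruzain 0’ Inhibition: at 5 µM compound concentration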;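 as to Cruzain 10’ Inhibition: at 5 µM compound concentration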;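 as to Cruzain Inhibition 0’: at 5 µM compound concentration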;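 as to Cruzain Inhibition 10’: at 5 µM compound concentration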
Sequence of cruzain (P25779 123-337 limits assumed): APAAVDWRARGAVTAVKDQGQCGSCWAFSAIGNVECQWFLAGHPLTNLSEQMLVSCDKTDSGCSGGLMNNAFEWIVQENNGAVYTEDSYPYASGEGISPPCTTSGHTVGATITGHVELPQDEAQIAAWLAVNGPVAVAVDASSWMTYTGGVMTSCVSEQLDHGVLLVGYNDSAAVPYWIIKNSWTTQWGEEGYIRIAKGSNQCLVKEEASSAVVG
How it was run: as §1

[1] = 0’ (no pre-incubation), sheet Screening results
[2] = 10’ (pre-incubation), sheet Screening results
[3] = 0’ (pre-incubation time), Pathogen Box screening results
[4] = 10’ (pre-incubation time), Pathogen Box screening results

Row | Compound | TbrCatL Inhibition 0’ (TbrCatL; [1]) [%] | TbrCatL Inhibition 10’ (TbrCatL; [2]) [%] | Cruzain Inhibition 0’ (cruzain; [1]) [%] | Cruzain Inhibition 10’ (cruzain; [2]) [%] | TbrCatL 0’ Inhibition (TbrCatL; 0’ (pre-incubation time)) [%] | TbrCatL 10’ Inhibition (TbrCatL; 10’ (pre-incubation time)) [%] | Cruzain 0’ Inhibition (cruzain; 0’ (pre-incubation time)) [%] | Cruzain 10’ Inhibition (cruzain; 10’ (pre-incubation time)) [%] | also measured
1 | CC1CCCN(C(=O)C(C)Nc2cc(Cl)ccc2N2CCOCC2)C1 (centres unmarked) [MMV020388] | 3.3 | 0.2 | 3.4 | 4.5 | – | – | – | – | –
2 | Cc1nc2ccccn2c1C(=O)NCc1ccc(Cl)cc1 [MMV012074] | -0.2 | 5.6 | 25 | 12 | – | – | – | – | –
3 | O=C(NCCc1c[nH]c2ccccc12)c1cc2ccccc2oc1=O [MMV676539] | 10 | 20 | 14 | 14 | – | – | – | – | –
4 | O=C1N(Cc2cc3ccccc3s2)CC2CN(Cc3ccccc3)CCN12 (centres unmarked) [MMV084603] | 18 | 4.6 | 7.6 | 6.4 | – | – | – | – | –
5 | O=C(NC1CC1)c1ccc(N2CCC(Cc3ccccc3)CC2)nc1 [MMV024397] | 2.6 | 2.6 | 3 | 6 | – | – | – | – | –
6 | CCc1c(C)nc(-n2nc(C)cc2NC(=O)c2ccccc2SC)[nH]c1=O [MMV676477] | -4 | -17 | -0.2 | -11 | – | – | – | – | –
7 | Cn1ncc2c(N3CCOCC3)nc(NCCc3c[nH]c4ccccc34)nc21 [MMV676382] | 4.7 | 7.5 | 17 | 15 | – | – | – | – | –
8 | c1ccc(-c2cc(N3CCCCC3)c3ccccc3n2)nc1 [MMV560185] | 4.5 | -2.4 | 5.5 | -4.5 | – | – | – | – | –
9 | O=C(NCc1ccoc1)N1CCN(Cc2ccc3c(c2)OCO3)CC1 [MMV688553] | -1.2 | -6.4 | -7 | 0.9 | – | – | – | – | –
10 | CCOc1ccccc1NC(C)C(=O)Nc1cc(C(F)(F)F)ccc1N1CCOCC1 (centres unmarked) [MMV407834] | – | – | – | – | -3 | -7 | -3.4 | 4 | –
11 | CC(C)=CCC/C(C)=C\CNCCNC1C2CC3CC(C2)CC1C3 (centres unmarked) [MMV687273] | – | – | – | – | -3.2 | -4.3 | -1.6 | 2.8 | –
12 | COc1ccc(C2=NN(C3CCCCCC3)C(=O)[C@H]3CC=CC[C@@H]23)cc1OCCCCOc1ccc(-c2nn[nH]n2)cc1 [MMV690027] | 6.4 | -1.8 | – | – | – | – | – | – | inhibition at 5 µM (TbrCatL; read-out: Inhibition at 5 µM (Mean ± SEM %) TbrCatL 0′): 6 ± 2%; inhibition at 5 µM (TbrCatL; read-out: Inhibition at 5 µM (Mean ± SEM %) TbrCatL 10′ inc): 0%; inhibition at 5 µM (cruzain; read-out: Inhibition at 5 µM (Mean ± SEM %) Cruzain 0′, 5 µM, no pre-incubation, initial screening): 50 ± 5%; inhibition at 5 µM (cruzain; read-out: Inhibition at 5 µM (Mean ± SEM %) Cruzain 10′ inc, 5 µM, 10′ pre-incubation, initial screening): 33 ± 2%; inhibition at 5 µM (cruzain; read-out: Inhibition of cruzain or TbrCatL (either enzyme) in the initial screening, 5 µM, either cruzain or TbrCatL, with or without pre-incubation): ≥ 40%
13 | c1ccc(-c2[nH]c3ccccc3c2C(c2ccccn2)N2CCCC2)cc1 (centres unmarked) [MMV688762] | 3.2 | 1.8 | 3.2 | 1 | – | – | – | – | –
14 | COc1cc(-c2cc(-c3ccc(S(C)(=O)=O)cc3)cnc2N)ccc1O [MMV010576] | – | – | – | – | 0.5 | 0.9 | 1.1 | 4 | –
15 | COc1cc(C2=NCCN2)ccc1-n1cc(-c2cccc(C3=NCCN3)c2)nn1 [MMV688474] | – | – | – | – | 10 | 30 | 2.4 | 13 | –
16 | Cc1cnc(N2CCN[C@@H](Cc3ccccc3)C2)nc1Oc1ccc(-n2ccnc2)cc1 [MMV687765] | – | – | – | – | 5 | 8.5 | 4.4 | 13 | –

Row | Compound | TbrCatL Inhibition 0’ (TbrCatL; [1]) [%] | TbrCatL Inhibition 10’ (TbrCatL; [2]) [%] | Cruzain Inhibition 0’ (cruzain; [1]) [%] | Cruzain Inhibition 10’ (cruzain; [2]) [%] | TbrCatL 0’ Inhibition (TbrCatL; 0’ (pre-incubation time)) [%] | TbrCatL 10’ Inhibition (TbrCatL; 10’ (pre-incubation time)) [%] | Cruzain 0’ Inhibition (cruzain; 0’ (pre-incubation time)) [%] | Cruzain 10’ Inhibition (cruzain; 10’ (pre-incubation time)) [%] | also measured
17 | COc1cc(N[C@@H](C)CCCN)c2ncccc2c1 [MMV000023] | 9 | 5 | 2.8 | 6.4 | – | – | – | – | –
18 | O=C(Nc1ccc(C(F)(F)F)c(C(F)(F)F)c1)c1cc(Cl)ccc1O [MMV687807] | – | – | – | – | -4 | -5 | -0.3 | 6 | –
19 | CC1=NN(c2nc3ccccc3s2)C(=O)C1Cc1cccc2ccccc12 (centres unmarked) [MMV676558] | -23 | -63 | -23 | -18 | – | – | – | – | –
20 | O=C(NCCc1ccccc1)c1cc(-c2cccnc2)cnc1NCC1CC1 [MMV026490] | – | – | – | – | 0.1 | -13 | -1.3 | -5 | –
21 | Cc1cc(Cl)ccc1NC(=O)CCc1ccc(S(=O)(=O)NCC(C)C)cc1 [MMV161996] | – | – | – | – | – | – | – | – | TbrCatL Inhibition 0’ (TbrCatL; [3]): 15%; TbrCatL Inhibition 10’ (TbrCatL; [4]): 1.5%; Cruzain Inhibition 0’ (cruzain; [3]): -2.2%; Cruzain Inhibition 10’ (cruzain; [4]): 9%
22 | O=C(NCc1cc(Cl)cc(Cl)c1)c1c(C(F)(F)F)nc2ccccn12 [MMV687699] | – | – | – | – | -1.6 | -6 | 3.3 | 7 | –
23 | CC1CCCCN1C(=O)NCCc1coc(-c2ccc(F)cc2)n1 (centres unmarked) [MMV688797] | 16 | 15 | 15 | 10 | – | – | – | – | –
24 | COc1ccc(CN2CCOc3ccc(C(C)(O)CN(C)C)cc3C2)cc1C (centres unmarked) [MMV008439] | -5 | -3.4 | 0.3 | 0 | – | – | – | – | –
25 | CCOC(=O)c1noc(N)c1-c1ccccc1 [MMV1236379] | – | – | – | – | – | – | – | – | TbrCatL Inhibition 0’ (TbrCatL; [3]): -9%; TbrCatL Inhibition 10’ (TbrCatL; [4]): -1.7%; Cruzain Inhibition 0’ (cruzain; [3]): -8%; Cruzain Inhibition 10’ (cruzain; [4]): 7%
26 | NS(=O)(=O)c1cccc(-c2ccc3ncc(N4CCOCC4)nc3c2)c1 [MMV023860] | – | – | – | – | -1.3 | 14 | -5.3 | 28 | –
27 | CCCCN(CCCC)c1c(C#N)cc(S(=O)(=O)Nc2ccccc2)cc1C#N [MMV688467] | – | – | – | – | -4.5 | 8 | -2.2 | 1.8 | –
28 | Nc1ccc2ncnc(Nc3ccc(OCc4cccc(F)c4)c(Cl)c3)c2c1 [MMV688273] | – | – | – | – | – | – | – | – | TbrCatL Inhibition 0’ (TbrCatL; [3]): 0.9%; TbrCatL Inhibition 10’ (TbrCatL; [4]): -14%; Cruzain Inhibition 0’ (cruzain; [3]): -11%; Cruzain Inhibition 10’ (cruzain; [4]): -18%
29 | COc1ccc(Cn2cnc3c(-c4ccco4)nc(Cl)nc32)cc1 [MMV687170] | – | – | – | – | 15 | 3.4 | 6 | 7 | –
30 | O=S(=O)(c1ccc(Cl)cc1)N1CCN(C(=S)NCc2ccco2)CC1 [MMV000858] | 0.9 | 6 | 8 | 13 | – | – | – | – | –
31 | O=C(Nc1cccnc1)c1c(O)c2cccc3c2n(c1=O)CC3 [MMV676395] | 17 | 19 | 10 | 8 | – | – | – | – | –
32 | O=C(OCc1ccccc1)N1CCC(c2cc(-c3ccncc3)c(-c3ccc(F)cc3)[nH]2)CC1 [MMV688509] | – | – | – | – | -13 | -13 | -3.8 | 3.8 | –
